Measured values: patent publication US10100077B2, “6-aryl-9-glycosylpurines and use thereof” (UNIVERZITA PALACKEHO V OLOMOUCI, priority 2014, dated 2018)

What was measured:
[1] = system: skin fibroblasts BJ and keratinocytes HaCaT; experiment: SRB in vitro toxicity test; type: cell-based; details: Homo sapiens, 72 hour treatment, maximal concentration 50 microM
Method in brief: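 BJ fibroblasts and HaCaT keratinocytes were exposed for 72 h to sixfold-diluted compound (maximum 50 μM), with DMSO as vehicle. Cells were TCA-fixed and stained with SRB, and absorbance was read at 564 nm. IC50 was calculated from dose-response curves.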

[2] = Calcein AM cytotoxicity assay, NIH3T3; type: cell-based, mouse; details: mouse, NIH3T3 fibroblasts
Method in brief: (§1)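 K562, MCF-7 and NIH3T3 cells (10^4/well) in DMEM with 10% FBS were preincubated for 24 hrs, then given six 4-fold dilutions, usually from 166.7 μM, in duplicate for 72 hrs at 37° C. Viability was read by Calcein AM fluorescence after 1 hour, with GI50 from survival relative to control.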

[3] = system: EpiDERM 3D model of epidermis; experiment: In vitro test of skin irritation in EpiDERM; type: cell-based
Procedure: EpiDERM™ is a 3D model of epidermis manufactured by Mattek company. The effects of tested substances are evaluated by MTT. 2 solutions (2 application forms) of the compounds 6-furfurylamino-9-β-D-arabinofuranosylpurine and 6-(3-methoxybenzylamino)-9-β-D-arabinofuranosylpurine in concentrations 1 mM a 200 microM in 0.5% DMSO/99.5% PBS were evaluated according to a standard protocol “INVITRO EpiDerm™ SKIN IRRITATION TEST”. After a preincubation of the tissues, 30 microliters of the application form solution were applied on the individual tissues. The exposition time was 60 minutes. Three tissues were used for each tested concentration as well as for controls. Following washing out of the applied solution, the tissues were incubated for 42 hour in order to allow a reparation of possible damage. In the next step, the tissue was incubated with MTT for 3 hours. The resulting formazan was extracted to isopropanol. Relative viability of the individual tissues was calculated as a percentage of viability of the average of the negative controls. Average viability of the tissues treated with 1 mM solution of the test substance was 99.3% for the compound 6-(3-methoxybenzylamino)-9-β-D-arabinofuranosylpurine and 98.0% for the compound 6-(furfurylamino)-9-β-D-arabinofuranosylpurine where 100% is an average viability of the tissues treated with the solvent only. None of the tested compounds in any of the concentrations caused any tissue damage or irritation. The compounds were evaluated as non-irritant in the tested concentrations.

[4] = Calcein AM cytotoxicity assay, K562; type: cell-based, human; details: human, K562 erythroleukemia cells
Method in brief: as §1

In the case of `COc1cccc(CNc2ncnc3c2ncn3[C@@H]2O[C@H](CO)[C@@H](O)[C@@H]2O)c1` [6-(3-methoxybenzylamino)-9-β-D-arabinofuranosylpurine], the IC50 [1] is reported as greater than 50 µM, the GI50 at 72 h [2] is reported as greater than 100 µM and the skin irritation evaluation ([3]; 1 mM and 200 microM in 0.5% DMSO/99.5% PBS) is reported as “non-irritant”. For the same molecule, the “Average viability of the tissues” value ([3]; 1 mM solution, 60 minutes exposition, 100% = solvent only) was 99.3% and the GI50 at 72 h [4] was greater than 100 µM.
